This is an account of results in patent US20230265151A1, “GIP/GLP1 CO-AGONIST COMPOUNDS” (priority 2020, published 2023).

Like-named read-outs stand apart in the source and are kept apart here.

The Emax is the size of the effect at its maximum, as opposed to the concentration needed. Broadly, the EC50 is the concentration that produces a half-maximal response.

For assay [1], the target named is T1, human GIP receptor (human) (UniProt P48546).
T1 sequence (looked up): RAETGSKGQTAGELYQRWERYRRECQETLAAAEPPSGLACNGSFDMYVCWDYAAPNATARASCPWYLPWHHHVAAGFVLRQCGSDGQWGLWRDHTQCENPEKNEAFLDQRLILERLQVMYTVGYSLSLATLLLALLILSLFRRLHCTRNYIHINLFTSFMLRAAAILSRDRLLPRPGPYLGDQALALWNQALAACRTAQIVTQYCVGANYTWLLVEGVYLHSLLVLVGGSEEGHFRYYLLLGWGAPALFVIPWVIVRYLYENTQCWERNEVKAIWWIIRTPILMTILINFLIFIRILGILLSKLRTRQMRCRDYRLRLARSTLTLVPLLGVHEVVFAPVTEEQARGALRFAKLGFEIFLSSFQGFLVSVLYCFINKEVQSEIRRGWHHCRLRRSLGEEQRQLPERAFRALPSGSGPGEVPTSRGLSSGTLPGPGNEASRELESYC
The experiment in a line: cell-based or functional assay.

In assay [2] the target is T2, hGIPR (Homo sapiens, UniProt P48546).
T2 construct: expressed in transfected cells
T2 sequence (P48546 22-466): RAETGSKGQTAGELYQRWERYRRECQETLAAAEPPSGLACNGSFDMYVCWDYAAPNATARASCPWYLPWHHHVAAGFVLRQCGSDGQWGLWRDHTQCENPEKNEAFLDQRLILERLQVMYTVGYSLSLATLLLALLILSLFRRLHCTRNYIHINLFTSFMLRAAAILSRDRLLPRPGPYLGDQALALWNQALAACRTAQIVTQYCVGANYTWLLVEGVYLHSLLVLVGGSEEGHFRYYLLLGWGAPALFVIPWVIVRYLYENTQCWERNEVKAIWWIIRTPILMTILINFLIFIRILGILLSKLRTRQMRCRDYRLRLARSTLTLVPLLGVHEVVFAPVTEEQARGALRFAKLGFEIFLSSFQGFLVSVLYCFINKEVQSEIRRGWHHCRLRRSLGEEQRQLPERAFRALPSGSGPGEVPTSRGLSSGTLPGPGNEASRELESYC
The assay is described as follows: Functional cAMP formation (HTRF) in HEK-293 clonal cells expressing hGIPR, 0.1% bovine casein, without or with 1.0% human serum albumin. The class given is cell-based. As to conditions: 37° C. In a few lines:
(§1)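 Cells were stimulated with peptide for 30 min at 37° C, then lysed in buffer carrying cAMP-d2 and anti-cAMP Eu3+-cryptate for a competitive HTRF read after at least 60 min at room temperature. The 665/620 nm ratio was converted to nM cAMP against a standard curve.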
A general note: Cyclic AMP is a second messenger, typically raised through Gs and lowered through Gi signalling.

Assay [3] addresses hGLP-1R (Homo sapiens, UniProt P43220). The assay is described as follows: Functional cAMP formation (HTRF) in HEK-293 clonal cells expressing hGLP-1R, 0.1% bovine casein, without or with 1.0% human serum albumin. The class given is cell-based. Also on record: expressed in transfected cells. The conditions noted are these: 37° C.; for EC50: cAMP, read-out: hGLP-1R EC50, nM (SEM, n). In a few lines:
as §1

For assay [4], the target named is T3, hGCGR (Homo sapiens, UniProt P47871).
T3 construct: expressed in transfected cells
T3 sequence (P47871 26-477): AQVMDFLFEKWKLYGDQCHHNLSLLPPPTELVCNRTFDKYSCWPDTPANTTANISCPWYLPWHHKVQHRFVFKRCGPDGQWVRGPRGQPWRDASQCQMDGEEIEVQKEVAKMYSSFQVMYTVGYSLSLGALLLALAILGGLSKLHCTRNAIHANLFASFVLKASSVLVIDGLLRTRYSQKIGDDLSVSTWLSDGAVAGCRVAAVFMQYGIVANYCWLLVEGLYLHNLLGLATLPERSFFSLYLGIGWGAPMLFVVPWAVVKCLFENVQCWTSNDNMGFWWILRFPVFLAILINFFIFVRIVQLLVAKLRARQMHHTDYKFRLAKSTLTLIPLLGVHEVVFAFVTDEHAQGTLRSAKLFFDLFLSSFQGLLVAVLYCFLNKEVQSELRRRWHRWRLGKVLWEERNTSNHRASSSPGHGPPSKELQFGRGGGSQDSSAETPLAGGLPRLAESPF
The experiment in a line: Functional cAMP formation (HTRF) in HEK-293 clonal cells expressing hGCGR, 0.1% bovine casein, without or with 1.0% human serum albumin. The class given is cell-based. The conditions noted are these: cAMP, 37° C., read-out: hGCGR EC50, nM (SEM, n). The gist of the method: as §1

[5] abbreviates: 0.1% bovine casein (no human serum albumin), geometric mean.
[6] abbreviates: 0.1% bovine casein and 1.0% human serum albumin, geometric mean (SEM, n).

hGLP-1R, sequence (P43220 24-463): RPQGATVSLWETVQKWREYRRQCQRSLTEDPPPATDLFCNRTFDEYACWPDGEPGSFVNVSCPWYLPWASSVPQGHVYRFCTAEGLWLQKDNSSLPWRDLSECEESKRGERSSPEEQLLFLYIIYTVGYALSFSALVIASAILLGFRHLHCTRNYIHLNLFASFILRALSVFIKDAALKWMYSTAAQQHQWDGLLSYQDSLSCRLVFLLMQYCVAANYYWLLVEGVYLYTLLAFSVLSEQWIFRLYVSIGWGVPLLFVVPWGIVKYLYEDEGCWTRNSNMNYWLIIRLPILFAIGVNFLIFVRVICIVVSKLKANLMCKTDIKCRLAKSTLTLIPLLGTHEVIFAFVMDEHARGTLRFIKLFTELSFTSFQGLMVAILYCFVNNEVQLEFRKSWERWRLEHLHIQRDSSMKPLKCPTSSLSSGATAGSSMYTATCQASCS

In assay [1], “hGIP(1-42)NH2 (from UniProt P09681 52-93) (ligand)” returned an Emax, cAMP of 100%; a cAMP EC50 (1.0% HSA) of 0.597 nM; a cAMP Emax (1.0% HSA) of 98%.

`CC[C@H](C)[C@H](NC(=O)[C@H](CC(C)C)NC(=O)[C@](C)(Cc1ccc(O)cc1)NC(=O)[C@H](CCCCNC(=O)COCCOCCNC(=O)CCCCCCCNC(=O)CC[C@H](NC(=O)CCCCCCCCCCCCC(=O)O)C(=O)O)NC(=O)[C@@H](NC(=O)[C@H](Cc1ccccc1)NC(=O)[C@H](CCCN)NC(=O)C(C)(C)NC(=O)[C@H](CCC(N)=O)NC(=O)[C@H](C)NC(=O)[C@H](CCC(N)=O)NC(=O)[C@H](CCCN)NC(=O)[C@H](CC(=O)O)NC(=O)[C@H](CC(C)C)NC(=O)[C@](C)(CC(C)C)NC(=O)[C@@H](NC(=O)C(C)(C)NC(=O)[C@H](Cc1ccncc1)NC(=O)[C@H](CC(=O)O)NC(=O)[C@H](CO)NC(=O)[C@@H](NC(=O)[C@](C)(Cc1ccccc1F)NC(=O)[C@@H](NC(=O)CNC(=O)[C@H](CCC(=O)O)NC(=O)C(C)(C)NC(=O)[C@@H](N)Cc1ccc(O)cc1)[C@@H](C)O)[C@@H](C)O)[C@@H](C)CC)[C@@H](C)CC)C(=O)N[C@@H](CCCCNC(=O)COCCOCCNC(=O)CCCCCCCNC(=O)CC[C@H](NC(=O)CCCCCCCCCCCCC(=O)O)C(=O)O)C(=O)NCC(=O)NCC(=O)N1CCC[C@H]1C(=O)N[C@@H](CO)C(=O)N[C@@H](CO)C(=O)NCC(=O)N[C@@H](C)C(=O)N1CCC[C@H]1C(=O)N1CCC[C@H]1C(=O)N1CCC[C@H]1C(=O)N[C@@H](CO)C(N)=O` [Example 450]: the Emax in assay [2] (HEK293, cAMP, 0.1% bovine casein and 1.0% human serum albumin, percent of maximal response to GIP(1-42)NH2, read-out: hGIPR Emax, % ± SEM) was 91.4%; in assay [3] (HEK293, cAMP, 0.1% bovine casein, percent of maximal response to GLP-1(7-36)NH2, arithmetic mean, read-out: hGLP-1R Emax, % ± SEM), 120%. In addition, the EC50 in assay [2] (cAMP, 0.1% bovine casein (no human serum albumin), geometric mean, read-out: hGIPR EC50, nM (SEM, n)) was 0.0138 nM; in assay [3] (setting [5]) it was 0.201 nM; in assay [3] (setting [6]) it was 32.3 nM; in assay [4] (setting [5]), greater than 9950 nM; in assay [4] (setting [6]), greater than 9950 nM.
